Data reported in ChEMBL document CHEMBL1201862, “PubChem BioAssay data set” (2004).
Active and inactive are the calls of the source.

Tests used:
[1] = Luminescent dose response cell-based high throughput screening assay for inhibitors of the Janus kinase 2 mutant JAK2V617F. [Related pubchem assays: 1446 (Primary screen.), 1521 (Confirmation assay.), 1486 (Counter screen.)]; format: functional
[2] = NIH-3T3 fibroblast cytotoxicity, dose response, cytotoxicity control, cell-based, fluorescence, Alamar Blue, secondary assay (AID 2327); format: functional;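 also: NIH-3T3 mouse fibroblasts cultured with fluconazole at 8 µg/mL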
[3] = target: Sphingosine 1-phosphate receptor 2 (Homo sapiens, UniProt O95136); experiment: Dose Response Cell Based Assay for Antagonists of the S1P2 Receptor. [Related pubchem assays: 856, 736 ]; format: functional
HeLa = experiment: Cytotoxicity counterscreen assay for transcriptional activators of heat shock protein 70 (Hsp70). [Related pubchem assays: 1203, 1252 ]; format: functional; conditions: Homo sapiens;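 also: cells exposed to compound for 16 hours before readout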
[4] = target: T1, Heat shock factor protein 1 (Mus musculus, UniProt P38532); experiment: inhibition of MG132-induced HSE-luciferase signal, confirmation, cell-based, NIH3T3, luminescence, dose retest (AID 2382); format: functional;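 also: NIH3T3 fibroblasts with HSF1-driven luciferase reporter stressed by proteasome inhibitor MG132; luminescence from HSF1-driven luciferase expression after 8 hours of MG132 stress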
T1 sequence (P38532 whole entry): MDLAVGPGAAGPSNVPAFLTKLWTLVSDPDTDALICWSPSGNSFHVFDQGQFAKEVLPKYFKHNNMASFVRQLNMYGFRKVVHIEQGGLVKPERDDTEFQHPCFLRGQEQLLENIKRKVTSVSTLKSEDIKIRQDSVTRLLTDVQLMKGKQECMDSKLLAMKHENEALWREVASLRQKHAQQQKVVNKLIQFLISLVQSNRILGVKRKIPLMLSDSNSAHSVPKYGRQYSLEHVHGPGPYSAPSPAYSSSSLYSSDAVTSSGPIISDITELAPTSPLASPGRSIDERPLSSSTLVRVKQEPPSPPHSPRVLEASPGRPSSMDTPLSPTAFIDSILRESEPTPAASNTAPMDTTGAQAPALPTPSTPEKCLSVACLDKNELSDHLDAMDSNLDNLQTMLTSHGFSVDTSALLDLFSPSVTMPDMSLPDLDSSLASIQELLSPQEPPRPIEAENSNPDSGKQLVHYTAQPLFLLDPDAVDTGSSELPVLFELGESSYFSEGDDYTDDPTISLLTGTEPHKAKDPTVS

[5] = C. albicans growth with fluconazole, confirmation, fluorescence, retest (AID 2467); format: functional, cell-based
[6] = inhibitors of intracellular T. cruzi replication, confirmation, NIH3T3 host cells, beta-gal luminescence (AID 2044); format: functional, cell-based;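 also: intracellular parasites grown in NIH/3T3 mouse fibroblasts as host cells; luminescent beta-galactosidase reporter signal from transgenic T. cruzi replicating inside host cells; inhibitors lower the luminescence signal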
[7] = cytotoxicity toward NIH3T3 fibroblasts, dose response, counter-screen, cell-based, ATP luminescence, mouse fibroblasts (AID 2010); format: functional;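 also: cells exposed to compound for about 90 hours before reading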
[8] = Intein inhibitors as potential Tuberculosis drugs, a cytotoxicity screen. [Related pubchem assays (depositor defined):AID2221, AID2223, AID434968, AID435010, AID449749, AID449750, AID489010]; format: functional
CHO = experiment: cytotoxicity in TLR9-MyD88 CHO cells, dose response, cytotoxicity control for TLR9-MyD88 binding inhibitor project, cell-based, luminescence (AID 588339); format: functional, hamster; conditions: Cricetulus griseus;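 also: CHO cells stably coexpressing TLR9 and MyD88 fusions from primary screen; compound exposure lasted 48 hours before viability readout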
[9] = target: T2, Replicative DNA helicase DnaB (Mycobacterium tuberculosis, UniProt P9WMR3); experiment: DnaB intein splicing inhibitors, dose response, biochemical, cell-free fluorescence (AID 449749); format: functional
T2 sequence (P9WMR3 whole entry): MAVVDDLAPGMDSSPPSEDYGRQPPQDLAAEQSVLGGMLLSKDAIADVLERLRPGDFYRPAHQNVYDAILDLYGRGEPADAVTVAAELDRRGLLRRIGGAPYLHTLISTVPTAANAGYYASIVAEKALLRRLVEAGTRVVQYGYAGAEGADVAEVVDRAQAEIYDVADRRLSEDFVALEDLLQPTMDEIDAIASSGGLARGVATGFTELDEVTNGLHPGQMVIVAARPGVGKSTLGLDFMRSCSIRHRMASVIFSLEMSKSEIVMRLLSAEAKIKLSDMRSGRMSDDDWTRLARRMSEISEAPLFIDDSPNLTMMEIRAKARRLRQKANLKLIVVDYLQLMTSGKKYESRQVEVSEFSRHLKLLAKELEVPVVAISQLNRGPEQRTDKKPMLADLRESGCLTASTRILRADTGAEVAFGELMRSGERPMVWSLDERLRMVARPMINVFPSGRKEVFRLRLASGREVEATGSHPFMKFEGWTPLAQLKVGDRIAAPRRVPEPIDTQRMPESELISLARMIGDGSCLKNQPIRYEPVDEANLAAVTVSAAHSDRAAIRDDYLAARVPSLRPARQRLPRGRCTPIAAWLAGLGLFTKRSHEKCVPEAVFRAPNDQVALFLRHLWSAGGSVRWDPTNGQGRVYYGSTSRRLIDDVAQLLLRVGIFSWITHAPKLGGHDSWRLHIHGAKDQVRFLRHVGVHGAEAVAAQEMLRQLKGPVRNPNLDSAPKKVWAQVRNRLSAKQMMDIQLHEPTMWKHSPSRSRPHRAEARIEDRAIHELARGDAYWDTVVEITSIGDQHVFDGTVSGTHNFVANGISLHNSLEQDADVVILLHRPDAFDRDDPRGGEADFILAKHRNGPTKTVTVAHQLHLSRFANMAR

Protein RecA = target: T3, Protein RecA (Mycobacterium tuberculosis, UniProt P9WHJ3); experiment: Fluorescence Cell-Free Homogeneous Dose Retest to Identify Inhibitors of RecA-Intein Splicing Activity. [Related pubchem assays (depositor defined):AID2097, AID2223, AID489010, AID492950]; format: functional
T3 sequence (P9WHJ3 whole entry): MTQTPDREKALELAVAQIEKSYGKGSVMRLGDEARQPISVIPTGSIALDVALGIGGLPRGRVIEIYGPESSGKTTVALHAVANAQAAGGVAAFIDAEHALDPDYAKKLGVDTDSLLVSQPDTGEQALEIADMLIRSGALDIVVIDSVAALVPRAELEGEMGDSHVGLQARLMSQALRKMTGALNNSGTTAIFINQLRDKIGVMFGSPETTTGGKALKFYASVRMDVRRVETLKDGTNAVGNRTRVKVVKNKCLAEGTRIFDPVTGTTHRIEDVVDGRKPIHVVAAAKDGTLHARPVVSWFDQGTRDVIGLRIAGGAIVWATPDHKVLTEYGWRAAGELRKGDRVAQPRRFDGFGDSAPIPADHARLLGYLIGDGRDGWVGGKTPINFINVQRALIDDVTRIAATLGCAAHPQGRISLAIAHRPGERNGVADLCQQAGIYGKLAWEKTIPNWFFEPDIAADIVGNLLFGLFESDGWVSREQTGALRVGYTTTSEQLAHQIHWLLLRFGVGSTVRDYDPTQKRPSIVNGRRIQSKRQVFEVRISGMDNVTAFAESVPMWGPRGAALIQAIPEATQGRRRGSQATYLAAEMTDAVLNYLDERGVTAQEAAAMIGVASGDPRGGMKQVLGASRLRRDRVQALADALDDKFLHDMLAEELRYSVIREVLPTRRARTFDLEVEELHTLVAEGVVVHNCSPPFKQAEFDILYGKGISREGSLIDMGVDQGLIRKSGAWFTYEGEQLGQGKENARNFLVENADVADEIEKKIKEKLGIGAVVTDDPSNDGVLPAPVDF

Beta Lactamase = Beta Lactamase (Pseudomonas aeruginosa, UniProt Q932Y6); experiment: beta-lactamase reporter inhibitor potency, dose response, artefact control for TLR9-MyD88 binding inhibitor project, BLA reporter cells, FRET fluorescence (AID 588341); format: cell-based;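 also: cell based assay in CHO-K1 cells stably expressing beta-lactamase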
INS1 = experiment: beta cell apoptosis inhibitors, cytokine rescue, dose response, luminescence, retest (AID 449756); format: functional, cell-based; conditions: Rattus norvegicus;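 also: cell death triggered by IL-1 beta plus TNF-alpha plus IFN-gamma mixture; protective hits raise ATP signal compared with cytokine alone wells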
[10] = Shn3 3'UTR reporter inhibitors, dose response, cell-based, Clone20 osteoblasts, firefly luciferase, cherry-picked (AID 624132); format: functional;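 also: firefly luciferase luminescence from reporter carrying the Shn3 3'UTR in osteoblasts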
[11] = HepG2 cell cytotoxicity, dose response, cytotoxicity control for Shn3 inhibitor project, CellTiter-Glo, cherry-picked (AID 624134); format: functional, cell-based
[12] = control 3'UTR Renilla luciferase suppression, dose response, counter-screen for Shn3 inhibitor project, cell-based, Clone20-Shn3RL, cherry-picked (AID 624133); format: functional
[13] = miR-122 activators in hepatoma reporter cells, dose response, cell-based, Huh7 psiCHECK-miR122, Renilla luciferase, cherry-picked (AID 651956); format: functional;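 also: huh7 hepatoma cells stably carrying a psiCHECK-2 miR-122 sensor plasmid; renilla luciferase signal reporting endogenous miR-122 activity after 48 h compound exposure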
[14] = HEK293T cytotoxicity, dose response, cytotoxicity control for miR-122 modulator project, cell-based, inhibitor set, cherry-pick, set 2 (AID 720697); format: functional
[15] = HEK293T cytotoxicity, dose response, cytotoxicity control for miR-122 modulator project, cell-based, activator set, cherry-pick (AID 720690); format: functional;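 also: HEK293T human cells scored for general mammalian cytotoxicity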
[16] = inhibitors of firefly luciferase expression or activity, dose response, H4 neuroglioma cells, luminescence (AID 1990); format: functional, cell-based
[17] = luciferase reporter signal reduction – luminescence, H4-C neuroglioblastoma cells, dose response (AID 2458); format: functional, cell-based;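 also: H4 neuroglioblastoma cells stably carrying a luciferase reporter gene fusion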
BJ [18] = experiment: cytotoxicity toward BJ-TERT fibroblasts, dose response, cell-based, RAS-independent, luminescence (AID 1933); format: functional; conditions: Homo sapiens
cells = format: functional, cell-based
[19] = Luminescence Cell-Based Dose Response HTS to Identify Inhibitors of 5'UTR Stem-Loop Driven Prion Protein mRNA Translation in H4 Neuroglioblastoma Cells. [Related pubchem assays: 1827 (Project Summary), 1813 (Primary HTS)]; format: functional
[20] = inhibitors of SNCA 5'UTR-driven reporter translation, confirmation, H4 neuroglioma cells, luminescence (AID 1988); format: functional, cell-based
BJ [21] = experiment: cells; format: functional, cell-based; conditions: Homo sapiens
BJ [22] = experiment: cytotoxicity toward BJ-TERT-LT-ST fibroblasts, dose response, cell-based, RAS-independent, luminescence (AID 1935); format: functional; conditions: Homo sapiens;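 also: BJ fibroblasts immortalized with TERT plus LT and ST oncogenes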
[23] = cytotoxicity toward DRD oncogenic fibroblasts, dose response, cell-based, non-viral oncogenic, luminescence (AID 1934); format: functional; conditions: Homo sapiens
[24] = inhibitors of SNCA 5'UTR-driven translation, confirmation, luminescence, H4 neuroglioblastoma cells, dose confirmation (AID 2454); format: functional, cell-based;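 also: H4 neuroglioblastoma cells carrying an alpha-synuclein 5'UTR luciferase reporter; potency for inhibition of the luciferase signal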
[25] = HEK293 cell cytotoxicity, dose response, cytotoxicity control, dry powder samples (AID 720567); format: functional, cell-based
[26] = Counterscreen for IDE inhibitors: Luminescence-based cell-based high throughput dose response assay to identify compounds that are cytotoxic to HEK cells. [Related pubchem assays: 434962 (Primary screen (IDE inhibitors in singlicate)), 449730 (Counterscreen (Cytotoxicity in triplicate)), 435028 (Confirmation (IDE inhibitors in triplicate)) …; format: functional; conditions: HEK293
Insulin-degrading enzyme = target: T4, Insulin-degrading enzyme (Homo sapiens, UniProt P14735); experiment: Dose Response: Fluorescence polarization-based cell-based high throughput dose response assay for inhibitors of insulin-degrading enzyme (IDE). [Related pubchem assays: 434962 (Primary screen (IDE inhibitors in singlicate)), 449730 (Counterscreen (Cytotoxicity in triplicate)), 435028 (Confirmation (IDE inhibitors in triplicate)), 434984 (Summary …; format: functional
T4 sequence (P14735 whole entry): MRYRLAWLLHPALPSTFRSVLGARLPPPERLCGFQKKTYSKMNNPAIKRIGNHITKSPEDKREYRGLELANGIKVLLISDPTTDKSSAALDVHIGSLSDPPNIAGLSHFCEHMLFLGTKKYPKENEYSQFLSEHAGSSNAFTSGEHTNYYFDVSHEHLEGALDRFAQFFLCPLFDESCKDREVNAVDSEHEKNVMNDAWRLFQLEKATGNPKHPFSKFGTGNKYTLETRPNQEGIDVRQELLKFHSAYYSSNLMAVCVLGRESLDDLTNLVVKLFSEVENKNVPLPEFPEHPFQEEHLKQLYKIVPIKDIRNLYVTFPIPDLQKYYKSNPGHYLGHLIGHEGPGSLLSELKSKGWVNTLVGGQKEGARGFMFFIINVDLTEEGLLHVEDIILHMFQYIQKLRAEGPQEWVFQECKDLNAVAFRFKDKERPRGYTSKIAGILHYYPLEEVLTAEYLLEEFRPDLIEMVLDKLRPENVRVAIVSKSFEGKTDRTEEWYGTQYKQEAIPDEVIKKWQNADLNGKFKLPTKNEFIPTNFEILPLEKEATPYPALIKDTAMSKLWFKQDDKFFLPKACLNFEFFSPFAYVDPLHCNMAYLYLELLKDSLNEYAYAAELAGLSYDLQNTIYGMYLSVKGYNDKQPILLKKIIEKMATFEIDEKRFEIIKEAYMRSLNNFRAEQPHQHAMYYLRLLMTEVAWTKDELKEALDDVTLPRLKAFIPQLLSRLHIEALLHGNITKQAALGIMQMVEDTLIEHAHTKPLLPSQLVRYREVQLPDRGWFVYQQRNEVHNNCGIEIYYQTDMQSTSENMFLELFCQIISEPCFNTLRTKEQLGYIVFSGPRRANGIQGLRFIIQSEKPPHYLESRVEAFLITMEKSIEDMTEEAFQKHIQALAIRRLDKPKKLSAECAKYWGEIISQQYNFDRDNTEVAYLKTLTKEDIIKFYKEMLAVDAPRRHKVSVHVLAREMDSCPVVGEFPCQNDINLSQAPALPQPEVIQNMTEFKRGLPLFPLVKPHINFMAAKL

Sphingosine 1-phosphate receptor 2, sequence (O95136 whole entry): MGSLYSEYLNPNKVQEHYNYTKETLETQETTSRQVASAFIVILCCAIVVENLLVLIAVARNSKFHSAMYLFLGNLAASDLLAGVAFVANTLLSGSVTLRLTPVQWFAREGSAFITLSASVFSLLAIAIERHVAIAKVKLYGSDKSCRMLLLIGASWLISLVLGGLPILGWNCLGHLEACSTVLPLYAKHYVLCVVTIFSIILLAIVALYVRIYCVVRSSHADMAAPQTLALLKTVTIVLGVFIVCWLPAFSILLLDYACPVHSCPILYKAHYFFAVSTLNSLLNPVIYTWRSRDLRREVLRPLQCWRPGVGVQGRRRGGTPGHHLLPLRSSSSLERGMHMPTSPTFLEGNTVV
Beta Lactamase, sequence (Q932Y6 whole entry): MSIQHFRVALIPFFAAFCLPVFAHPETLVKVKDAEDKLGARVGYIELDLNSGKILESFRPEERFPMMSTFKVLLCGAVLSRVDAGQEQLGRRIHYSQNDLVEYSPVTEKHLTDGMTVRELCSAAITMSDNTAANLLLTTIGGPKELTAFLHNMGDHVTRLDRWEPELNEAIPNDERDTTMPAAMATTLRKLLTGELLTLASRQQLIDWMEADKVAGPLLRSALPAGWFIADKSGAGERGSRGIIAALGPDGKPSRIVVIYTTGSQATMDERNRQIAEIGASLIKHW

O=C(OCn1ncc(Cl)c(Cl)c1=O)c1ccccc1Cl
IC50 [1]: 0.401 µM (active)
EC50 [2]: 2.57 µM (inconclusive)
IC50 [3]: 3.15 µM (active)
CC50 (HeLa): > 11 µM (not active)
EC50 [4]: 1.99 µM (active)
EC50 [5]: > 38 µM (not active)
EC50 [6]: 1.04 µM (active)
EC50 [7]: 1.07 µM (active)
CC50 [8]: 5.38 µM (active)
IC50 (CHO): 1.64 µM (active)
AC50 [9]: 3.32 µM (active)
EC50 (Protein RecA): 0.669 µM (active)
IC50 (Beta Lactamase): > 49.8 µM (inactive)
AC50 (INS1): 5.37 µM (active)
AC50 [10]: 3.56 µM (active)
AC50 [11]: 27.3 µM (active)
AC50 [12]: 3.56 µM (active)
AC50 [13]: 11.2 µM (active)
AC50 [14]: 4.39 µM (active)
AC50 [15]: 4.89 µM (active)

CCOc1ccc(NC(=O)c2cc(OC)nc3ccccc23)cc1
EC50 [16]: 4.73 µM (active)
EC50 [17]: 0.965 µM (active)
EC50 (BJ [18]): 1.11 µM (active)
EC50 (cells): 1.96 µM (active)
EC50 [19]: 0.303 µM (active)
EC50 [20]: < 0.1 µM (active)
EC50 (BJ [21]): 69.8 µM (inconclusive)
EC50 (BJ [22]): 1.38 µM (inconclusive)
EC50 [23]: 0.894 µM (active)
EC50 [24]: 1.16 µM (active)
AC50 [25]: > 30 µM (inactive)

Oc1sc(/C=N/c2ccc(F)cc2)c2ccccc12
IC50 [26]: > 55.7 µM (not active)
IC50 (Insulin-degrading enzyme): > 55.9 µM (not active)
